The IC50 is the point on the concentration scale where inhibition reaches its midpoint.

≈ marks a conversion by molar mass, not a printed value. Like-named read-outs stand apart in the source and are kept apart here.

The subject of this assay is HBsAg. The assay is described as follows: microbe, parasite or virus in culture. Particulars: Hepatitis B virus; for inhibition at 7.81 µg/mL / inhibition at 15.63 µg/mL / inhibition at 31.25 µg/mL / inhibition at 62.5 µg/mL / inhibition at 125 µg/mL / inhibition at 250 µg/mL: read-out: HBsAg Inhibit rate (%). The class given is cell-based, HBV. The procedure:
The cultures were passenged by trypsinization every 4 days.
HBsAg and HBeAg in the culture medium were determined according to the protocol respectively. The culture medium (200 μl) was absorbed on beads containing antibody to HBsAg/HBeAg in the presence of the conjugate. After overnight incubation, the beads were washed 6 times with […] PBS containing 0.05% Tween-80 and incubated with 200 μl of [^125 I] anti-HBs(Hbe) overnight. The beads were washed 6 times as above. The amounts HBsAg/HBeAg as measure of cpm of [^125 I] labeled immunocomplex was counted on γ-counter.

In the case of `O=C(/C=C/c1ccc(O)c(O)c1)OC1CC(OC(=O)/C=C/c2ccc(O)c(O)c2)(C(=O)O)CC(O)C1O` (centres unmarked) [Compound A, 1,5-di-O-caffeoylquinic acid], for the setting “96 h”, the inhibition at 7.81 µg/mL stood at 17.2%, the inhibition at 15.63 µg/mL amounted to 26%, the inhibition at 31.25 µg/mL amounted to 37.2 ± 2.86% and the inhibition at 62.5 µg/mL worked out at 47.5 ± 1.17%. Also, for the setting “96 h”, the inhibition at 125 µg/mL was found to be 57% and the inhibition at 250 µg/mL came to 62.3 ± 2.22%. In addition, under “288 h”, the inhibition at 7.81 µg/mL is 24.2 ± 4.63%, the inhibition at 15.63 µg/mL stood at 31.4 ± 3.2%, the inhibition at 31.25 µg/mL stood at 36.1% and the inhibition at 62.5 µg/mL came to 50.1 ± 1.28%. In addition, under “288 h”, the inhibition at 125 µg/mL is 58.3% and the inhibition at 250 µg/mL is 66.6%. For the setting “[…]”, the inhibition at 7.81 µg/mL turned out to be 18.5%, the inhibition at 15.63 µg/mL was 27.6%, the inhibition at 31.25 µg/mL is 35.8 ± 1.9% and the inhibition at 62.5 µg/mL came out at 46.7 ± 2.03%. Further, under “[…]”, the inhibition at 125 µg/mL is 55 ± 2.08% and the inhibition at 250 µg/mL was 68.8 ± 4.68%. For the same compound, the IC50 (read-out: IC50, production of HBsAg) is 21 to 165 µg/mL (≈ 40.7 to 319 µM). The IC50 (read-out: IC50 for inhibition of production of HBsAg) was in the range of 21 to 165 µg/mL (≈ 40.7 to 319 µM).

Values taken from patent US6331565A, “Dicaffeoylquinic acid for treating hepatitis B and the diseases associated with retrovirus, and the new caffeoylquinic acid derivatives” (Institute of Radiation Medicine Academy of Military Medical …, priority 1996, dated 2001).
